Test results published in patent US11051510B2, “Asymmetric formales and acetales as adjuvants for crop protection” (BASF SE, priority 2014, dated 2021).

Tested on: Puccinia recondita
Experiment: Greenhouse test on wheat infected with Puccinia recondita at full and reduced dose rate (Example 12)
Type: in vivo, Puccinia recondita on wheat (species "Kanzler")
Conditions: for Infected leaf area at 25% dose rate: 2.5 g/ha pesticide (epoxiconazole) and 5 g/ha adjuvant; for Infected leaf area at 100% dose rate: 10 g/ha pesticide (epoxiconazole) and 20 g/ha adjuvant
Method: The biological activity was assessed in a greenhouse on wheat (species “Kanzler”), which was infected with Puccinia recondita at two leafs stage and incubated for three days at high humidity. The plants were sprayed (spray volume 200 l/ha) with a composition comprising 50 ppm (10 g/ha) epoxiconazole and 100 ppm (20 g/ha) of the respective adjuvant samples from Example 1-9. In the comparative example no adjuvant was added. The plants were further cultivated for ten days at 20-24° C. and 60-90% relative humidity. Finally, the percentage of the infected leaf area was visually inspected. Each value was based on three replicates.
The biological activity was assessed in a greenhouse as described in Example 11 with a dose rate of 10 g/ha pesticide and 20 g/ha adjuvant (“100%” in Table 4) and a reduced dose rate of 2.5 g/ha pesticide and 5 g/ha adjuvant (“25%” in Table 4). In this test the adjuvants from Example 1 (formula A), Example 2 (formula B) and as comparative adjuvant butyl endcapped ethoxylated (5EO) n-dodecanol (formula C) were compared. All three compounds are butyl endcapped. Formula A and C have the same degree of ethoxylation of five ethylene oxide (EO) units. Formula B (only 3 EO) and C have a similar overall molecule weight. n-C12-18—[O—CH2—CH2]5—O—CH2—O—CH2—CH2—O—Bu (A) n-C12-18—[O—CH2—CH2]3—O—CH2—O—CH2—CH2—O—Bu (B) n-C12[O—CH2—CH2]5—Bu (C)

Substance: n-C12-18—[O—CH2—CH2]5—O—CH2—O—CH2—CH2—O—Bu [(A)]
- Infected leaf area at 25% dose rate: 23%
- Infected leaf area at 100% dose rate: 7%

Substance: n-C12-18—[O—CH2—CH2]3—O—CH2—O—CH2—CH2—O—Bu [(B)]
- Infected leaf area at 25% dose rate: 13%
- Infected leaf area at 100% dose rate: 6%

Substance: butyl endcapped ethoxylated (5EO) n-dodecanol [(C), reference compound]
- Infected leaf area at 25% dose rate: 38%
- Infected leaf area at 100% dose rate: 8%
